Measurements reported in PubChem BioAssay (NCI).
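Exposure lasted 48 hours, with cells grown in 96-well plates and compounds tested at five concentrations. TGI: total growth inhibition.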

Tests used:
Assay in all cases: DTP human tumour cell line panel, 48 h
[1] = system: 786-0 renal
[2] = system: A498 renal
[3] = system: A549 NSCLC
[4] = system: ACHN renal
[5] = system: CAKI-1 renal
[6] = system: CCRF-CEM leukemia
[7] = system: COLO 205 colon
[8] = system: DLD-1 colon
[9] = system: DMS 114 small cell lung
[10] = system: DMS 273 small cell lung
[11] = system: EKVX NSCLC
[12] = system: HL-60(TB) leukemia
[13] = system: HOP-18 NSCLC
[14] = system: HOP-62 NSCLC
[15] = system: HOP-92 NSCLC
[16] = system: HT29 colon
[17] = system: IGROV1 ovarian
[18] = system: K-562 leukemia
[19] = system: KM12 colon
[20] = system: KM20L2 colon
[21] = system: LOX IMVI melanoma
[22] = system: LXFL 529 NSCLC
[23] = system: M19-MEL melanoma
[24] = system: MALME-3M melanoma
[25] = system: MOLT-4 leukemia
[26] = system: NCI-H226 lung
[27] = system: NCI-H23 lung
[28] = system: NCI-H460 lung
[29] = system: OVCAR-4 ovarian
[30] = system: OVCAR-5 ovarian
[31] = system: OVCAR-8 ovarian
[32] = system: RXF 393 renal
[33] = system: RXF-631 renal
[34] = system: SF-268 CNS
[35] = system: SF-295 CNS
[36] = system: SF-539 CNS
[37] = system: SK-MEL-2 melanoma
[38] = system: SK-MEL-28 melanoma
[39] = system: SK-MEL-5 melanoma
[40] = system: SK-OV-3 ovarian
[41] = system: SN12C renal
[42] = system: SNB-19 CNS
[43] = system: SNB-78 CNS
[44] = system: SR leukemia
[45] = system: SW-620 colon
[46] = system: TK-10 renal
[47] = system: U251 CNS
[48] = system: UACC-257 melanoma
[49] = system: UACC-62 melanoma
[50] = system: UO-31 renal
[51] = system: HCC-2998 colon
[52] = system: HCT-116 colon
[53] = system: HCT-15 colon
[54] = system: M14 melanoma
[55] = system: NCI-H522 lung
[56] = system: OVCAR-3 ovarian
[57] = system: RPMI-8226 leukemia
[58] = system: SNB-75 CNS
[59] = system: XF 498 CNS

CCN(CC)c1c(C(=O)/C=C/c2ccc(OC)cc2)c(-c2ccccc2)nn(C)c1=O
TGI [1]: 41.2 µM
TGI [2]: 46.8 µM
TGI [3]: 81 µM
TGI [4]: > 100 µM
TGI [5]: > 100 µM
TGI [6]: 45.6 µM
TGI [7]: 9.25 µM
TGI [8]: 71.3 µM
TGI [9]: 32.3 µM
TGI [10]: 5.13 µM
TGI [11]: 69.6 µM
TGI [12]: 43.9 µM
TGI [13]: 51.7 µM
TGI [14]: > 100 µM
TGI [15]: 43.4 µM
TGI [16]: 41.3 µM
TGI [17]: 68.8 µM
TGI [18]: 49.9 µM
TGI [19]: 37.1 µM
TGI [20]: 33.1 µM
TGI [21]: 44.9 µM
TGI [22]: > 100 µM
TGI [23]: > 100 µM
TGI [24]: 35.1 µM
TGI [25]: 19.8 µM
TGI [26]: 47.9 µM
TGI [27]: 34.6 µM
TGI [28]: 35.4 µM
TGI [29]: 58 µM
TGI [30]: 28 µM
TGI [31]: > 100 µM
TGI [32]: 25 µM
TGI [33]: > 100 µM
TGI [34]: 73.1 µM
TGI [35]: 63.6 µM
TGI [36]: 45.9 µM
TGI [37]: 38.7 µM
TGI [38]: 35.7 µM
TGI [39]: 21.5 µM
TGI [40]: > 100 µM
TGI [41]: 78.4 µM
TGI [42]: 45.9 µM
TGI [43]: > 100 µM
TGI [44]: 44.7 µM
TGI [45]: 98.4 µM
TGI [46]: 99.9 µM
TGI [47]: 32.7 µM
TGI [48]: 60.8 µM
TGI [49]: 28.5 µM
TGI [50]: > 100 µM

CC(=O)CC(=O)OC1CC(C)CCC1C(C)C (stereo not given)
TGI [1]: > 100 µM
TGI [2]: > 100 µM
TGI [3]: > 100 µM
TGI [4]: > 100 µM
TGI [5]: > 100 µM
TGI [6]: 44 µM
TGI [7]: > 100 µM
TGI [8]: > 100 µM
TGI [9]: > 100 µM
TGI [10]: > 100 µM
TGI [11]: > 100 µM
TGI [51]: > 100 µM
TGI [52]: 80.1 µM
TGI [53]: > 100 µM
TGI [12]: 40.2 µM
TGI [14]: > 100 µM
TGI [15]: > 100 µM
TGI [16]: > 100 µM
TGI [17]: > 100 µM
TGI [18]: > 100 µM
TGI [19]: > 100 µM
TGI [21]: > 100 µM
TGI [22]: > 100 µM
TGI [54]: > 100 µM
TGI [23]: > 100 µM
TGI [24]: > 100 µM
TGI [25]: 44.2 µM
TGI [27]: > 100 µM
TGI [28]: > 100 µM
TGI [55]: > 100 µM
TGI [56]: > 100 µM
TGI [29]: > 100 µM
TGI [30]: > 100 µM
TGI [31]: > 100 µM
TGI [57]: 46.1 µM
TGI [32]: > 100 µM
TGI [33]: > 100 µM
TGI [34]: > 100 µM
TGI [35]: > 100 µM
TGI [36]: > 100 µM
TGI [37]: 78.8 µM
TGI [38]: > 100 µM
TGI [39]: > 100 µM
TGI [40]: > 100 µM
TGI [41]: > 100 µM
TGI [42]: > 100 µM
TGI [58]: > 100 µM
TGI [43]: > 100 µM
TGI [45]: > 100 µM
TGI [46]: > 100 µM
TGI [47]: > 100 µM
TGI [48]: > 100 µM
TGI [49]: > 100 µM
TGI [50]: > 100 µM
TGI [59]: > 100 µM
